# Laboratory results taken from US20220133629A1, “FORMULATIONS FOR TREATMENT OF DRY EYE DISEASE” (Aldeyra Therapeutics, Inc., priority 2018, published 2022).
# Test system: patients with dry eye disease
# Test: Phase 2b: overall efficacy on signs and symptoms
# Format: in vivo, human
# Protocol: In a Phase 2b clinical trial, the efficacy of Reproxalap Ophthalmic Solutions (0.25% and 0.1%) were evaluated in patients with dry eye disease (see the details in Example 1). […] The efficacy profile of Reproxalap Ophthalmic Solutions was evident as early as two weeks following treatment initiation. […] Efficacy Analysis • Evaluated baseline to weeks 2, 4, 8 and 12 change scores with reproxalap on DED sign and symptom endpoints (both pre-CAE and CAE endpoints). Each endpoint was analyzed at a two-sided alpha level of 0.05, and the overall type I error was not controlled for in this investigative study. • Evaluated effect size of baseline to weeks 2, 4, 8 and 12 change scores of reproxalap vs vehicle on DED sign and symptom endpoints (both pre-CAE and CAE endpoints) to confirm the endpoint selection for primary outcome parameters and sample size for Phase 3 studies with reproxalap. • Sub-group analyses on effect size of baseline to weeks 2, 4, 8 and 12 change scores of reproxalap vs vehicle on DED sign and symptom endpoints (both pre-CAE and CAE endpoints) [Subgroups were prospectively detailed in the Statistical Analysis Plan (SAP)].
structure (smiles),measurement,value
"CC(C)(O)c1nc2ccc(Cl)cc2cc1N [Reproxalap, reproxalap]",Dose response between 0.1% and 0.25% dose strengths,dose response
